The test system of data set [1] is Exponentially proliferating cells. The experiment in a line: Intracellular detection of biotinylated peptides (cell penetration). It counts as cell-based. The method, then: Exponentially proliferating cells were rinsed twice in PBS. A total of 6×10^4 cells per well were seeded in 24 well plates and incubated in RPMI-1640 at 37° C. After 24 h, biotinylated peptides were added and incubated with cells (4 h) for intracellular analysis. Cells were rinsed in PBS and fixed with 0.1% paraformaldehyde (PFA) for 10 min before adding […] of streptavidin-peroxidase. Then, cells were rinsed with PBS, incubated with di-amino-benzidyne (DAB) for 5 min, washed in PBS and analyzed by microscopy.

In data set [2] the test system is primary B cells from CLL patients. The experiment in a line: Effect of DPT-C9h on PBMC: B cells from CLL patients (annexin staining). It counts as cell-based, human. How it is done:
PBMC (Peripheral Blood Mononuclear Cell) were isolated by Ficoll gradient centrifugation from healthy donors and CLL patients, cultured in complete RPMI medium and treated with 150 μM of DPT-C9h peptide. Upon 3 h of treatment, cells were washed and resuspended in complete RPMI medium. Apoptosis was estimated 6 h after washing using Annexin staining and specific markers for B cells (FIG. 4A), and for T, NK and monocytes (FIG. 4B). Apoptosis is represented as the percentage compared to cells treated with […].
PBMC were isolated by Ficoll gradient centrifugation from healthy donors and three different types of CLL patients: treated, non-treated and resistant. Cells were maintained in complete RPMI medium, treated with 150 μM of DPT-C9h peptide for 3 h and then washed and transferred to complete medium. Samples were analyzed at different times after washing. Apoptosis was estimated by annexin staining. The different populations were selected using specific markers. Apoptosis is represented as percentage compared to control non treated cells.
Mononuclear cells isolated from peripheral blood (PBMC) were prepared by Ficoll gradient centrifugation.
A total of 2.5×10^5 cells were washed with ice-cold PBS, diluted in ice-cold binding buffer and stained with annexin and propidium iodide (PI). Samples were maintained on ice for 10 min in the dark and then analyzed by flow cytometry.

Data set [3] deals with bone marrow B cells from CLL patients. The experiment in a line: Effect of DPT-C9h on bone marrow cells, CLL patients. It counts as cell-based, human.

Consider six compounds from patent publication US8957184B2, “Pro-apoptotic peptides” (priority 2009, dated 2015).

Like-named read-outs stand apart in the source and are kept apart here. Ends that are not written are not given here.

On to `N=C(N)NCCC[C@H](NC(=O)[C@H](CCCNC(=N)N)NC(=O)[C@H](CCCNC(=N)N)NC(=O)[C@H](CCC(N)=O)NC(=O)[C@H](CCCNC(=N)N)NC(=O)[C@H](CCCNC(=N)N)NC(=O)[C@H](CCCCN)NC(=O)[C@H](CCCCN)NC(=O)[C@H](CCCNC(=N)N)NC(=O)CNC(=O)[C@@H](N)Cc1ccc(O)cc1)C(=O)O` [Tat, YGRKKRRQRRR], for which, in data set [1] (data not shown), the internalization of peptide result is “internalized”.

VKKKKIKREIKI [DPT-sh1, VKKKKIKREIKI]: in data set [1] (data not shown), the internalization of peptide entry is “internalized”.

Consider “YIETLDGILEQWARSEDL [C9, YIETLDGILEQWARSEDL]”, for which the internalization of peptide result in data set [1] (data not shown) is reported as “not internalized”.

Regarding “VKKKKIKREIKIYIETLDGILEQWARSEDL [DPT-C9, VKKKKIKREIKI-YIETLDGILEQWARSEDL]”, the internalization of peptide entry in data set [1] is reported as “internalized”.

Consider “VKKKKIKREIKILDESRAWQELIGDLTEIY [DPT-C9r, VKKKKIKREIKI-LDESRAWQELIGDLTEIY]”, for which the internalization of peptide result in data set [1] (data not shown) is “internalized”.

With “VKKKKIKREIKIYVETLDGIFEQWAHSEDL [DPT-C9h, VKKKKIKREIKI-YVETLDGIFEQWAHSEDL]”, in data set [2], the penetrating properties entry is recorded as “penetrating”. Also, the cell penetrating activity entry in data set [3] is given as “cell penetrating”.
